pIC50: −log10 of the molar value. Where two headings read alike, the source gives them in different places.
What was measured:
[1] = test system: abnormal MHC gene expression in thyroid epithelial cells; conditions: ref Giuliani et al., 2010; cited from earlier work
[2] = test system: TNF-α-induced VCAM-1 mRNA expression; conditions: human aortic endothelial cells, Northern blot analysis; ref Dagia et al., 2004; cited from earlier work
[3] = test system: TNF-α-induced VCAM-1 protein expression; experiment: ELISA of 24 h TNF-α-induced VCAM-1 protein expression on HUVEC; assay type: cell-based, human; conditions: for inhibition of the VCAM-1 protein expression elicited by TNF-α: 50 μM compound
HUVEC = experiment: Cell viability; assay type: cell-based, human; conditions: 24 h, linear regression, mean of three experiments

| SMILES | suppression of abnormal MHC gene expression compared to MMI [1] | effect on 24 h TNF-α-induced VCAM-1 mRNA expression [2] | inhibition of the VCAM-1 protein expression elicited by TNF-α ([3]; 24 h TNF-α) | pIC50 ([3]; read-out: IC50, concentration of compound needed to inhibit 50% of the VCAM-1 expression, 10 ng/ml TNF-α, 24 h, ELISA, linear regression, average of at least three experiments) | TC50, concentration of compound needed to reduce the MTS signal by 50% of the control value (HUVEC) [µM] | inhibition of VCAM-1 protein expression ([3]; 70 μM compound, 24 h TNF-α) | pIC50 ([3]; Homo sapiens, 24 h, read-out: IC50, concentration of compound needed to inhibit 50% of the VCAM-1 expression) |
| --- | --- | --- | --- | --- | --- | --- | --- |
| Cn1c(-c2ccccc2)c[nH]c1=S [1a, 4-phenyl-3-methyl-1, 3 imidazole-2-thione] | 70–100 fold | inhibits | over 40% | 4.18 | – | – | – |
| Cn1cc[nH]c1=S [MMI, 3-methyl-1, 3 imidazole-2 thione] | – | – | no inhibitory effect | – | 2450 | little, if any, inhibition | 2.95 |

— article PMC5019189 (European journal of pharmacology, 2015)
